Assay results from patent US20260356803A1, “Nicotinamide derivatives” (Board of Regents, The University of Texas System, priority 2024, published 2026).
Entries after “also recorded” stand apart in the source; their conditions may differ.

Key:
[1] = target: T1, recombinant human inosine monophosphate dehydrogenase 2 (IMPDH2) (Homo sapiens, UniProt P12268); test: IMPDH2 enzyme assay with reaction extracts; format: biochemical; details: role: inhibitor; extract of overnight reaction of 9 with NAMPT and NMNAT added at 40% v/v; 500 uM NAD, 250 uM IMP
T1 construct: NADH absorbance assay with extracts of NAMPT/NMNAT reactions
Excerpt: (§1) Given that vacor, 3-AP, and compound 21 are all metabolized to toxic, NAD-like derivatives through NAMPT and NMNAT, we hypothesized that their anti-cancer activity may also depend on SARM1. To test this, we compared the toxic effects of vacor, 3-AP, and 9 in either wild type cells or cells in which we used CRISPR to silence SARM1. […] These observations highlight that even though these different scaffolds are toxified through the same mechanism, the resulting metabolites may have different activities. We next co-titrated guanosine, which is known to rescue tiazofurin by bypassing IMPDH in guanylate synthesis, with each of the above small molecules. […] To test this hypothesis, we set up in vitro reactions with different combinations of 9, NAMPT and NMNAT. After incubation, metabolites were extracted, reconstituted in aqueous solution and then co-incubated with an established IMPDH2 enzyme assay.
IMPDH activity was measured by monitoring NADH production through the change in absorbance at […] as previously described [PMID: 13428767]. […] Absorbance was measured every 30 seconds for 30 minutes on a BioTek Cytation 5 plate reader (Agilent, USA) at 37 °C. IMPDH2 activity was determined from the slope of absorbance vs. time plots. […]

IMPDH = test: Guanosine co-titration rescue; format: cell-based; details: guanosine co-titrated
Excerpt: as §1

HCT116 cells = test: Cas9-expressing HCT116 cell viability; format: cell-based
Excerpt: To gain insight into the mechanism of 9 and the relevance of Nam, we pursued two independent and complementary unbiased genetic approaches. First, we performed a genome-wide pooled Clustered Regularly Interspaced Short Palindromic Repeats (CRISPR) and CRISPR-associated protein 9 (Cas9) knockout screen to identify genes whose loss of function can enhance or suppress compound 9 activity. […] We cultured Cas9-expressing HCT116 cells in 10% FBS Nam-free DMEM and transduced with a lentiviral single guide RNA (sgRNA) library designed to silence 19,114 human genes.^11 These cells were treated with either vehicle (DMSO) or 9 for 30 days by which time the 9-treated cells had 7.6 fewer population doublings. Then, relative sgRNA sequences in the resulting cells were determined by massively parallel sequencing of PCR products amplified from genomic DNA, and the relative impact of each gene was derived from the sgRNA reads.
These observations, taken together, support the hypothesis that the activity of compound 9 depends on NAMPT and NMNAT1.
In 96-well assay plates (Corning #2903), 2,000 cells were plated per well in 100 μL of medium and allowed to adhere overnight. The next day, compounds or Nam suspended in DMSO were dispensed to the assayed wells using a D300e Digital Dispenser (Tecan). All wells were normalized to 0.5% DMSO. 72 hours after incubation at 37 °C in 5% CO2, cell viability was assayed using an ATP-based luminescent viability assay, CellTiter-Glo (Promega #G8462). CellTiter-Glo substrate was mixed 1:1 with phosphate-buffered saline (PBS) supplemented with 1% Triton X-100, and 40 μL of this mixture was added to the assay wells. After the plates were shaken on a microplate shaker for 10 minutes at room temperature, luminescence was recorded using a Synergy 2 Microplate Reader or Cytation 5 plate reader (BioTek). In Prism 9 software (GraphPad), ten-point dose response curves were plotted with baseline-correction to the vehicle control well, and IC50 values were calculated by curve fitting using asymmetric (five parameter), least squares fit.

SARM1 = test: Cytotoxicity in SARM1-knockout versus wild type cells; format: cell-based; details: SARM1-knockout vs wild type
Excerpt: as §1

resistant iHCT116 clones = test: Metabolism of 9 in resistant iHCT116 clones; format: cell-based; details: parental and resistant clones
Excerpt: The experiments described above are consistent with the model that both 1 and 9 are converted by NAMPT and NMNAT1 into their respective MN and AD metabolites. It remains unclear, however, which of these two metabolites is contributing to toxicity. To address this question, we measured 9 metabolism, 9-MN and 9-AD levels upon treatment of the resistant clones identified through forward genetics. […] Clones 5 and 7 were resistant to 9 but had normal NAMPT and NMINAT levels.
Prior to the experiment, cells were cultured in low-Nam DMEM for at least 1 passage (3 days) to deplete intracellular Nam. 15,000 cells were plated in a 96-well plate with 100 μL low-Nam media. At appropriate time points, 500 nM 1 or 9, or equal volume of vehicle (DMSO) were added using TECAN. 200 μL of acetonitrile with 0.1% formic acid were added to the assayed wells. For the 0-hour time point, compound or vehicle was added after the addition of acetonitrile and formic acid. Following incubation for 10 minutes at room temperature, samples were transferred to Eppendorf tubes and centrifuged at 20,000×g for 5 minutes. The supernatants were filtered through 0.2 μm PVDF filters and analyzed by LC-MS/TOF.

[2] = mice; dosed orally (b5); listed as compound 21; cited from earlier work
[3] = tested on: human MPNST cells subcutaneously xenografted into mice; details: cited from earlier work
Schwann cells = details: cited from earlier work
primary mouse GBM cells = details: screen of 200,000 synthetic compounds; cited from earlier work
[4] = tested on: mouse embryonic fibroblasts; details: cited from earlier work
[5] = tested on: mouse and human MPNST cell lines; details: cited from earlier work

Row | inhibition of IMPDH activity [1] | IC50 (HCT116 cells; Cas9-expressing HCT116, 10% FBS Nam-free DMEM) [nM] | average increase in IC50 on NMNAT1 knockout (HCT116 cells; HCT116, three independent NMNAT1 sgRNAs) [fold] | metabolism of 9 over time (resistant iHCT116 clones) | SMILES | guanosine rescue of toxicity (IMPDH) | rescue by 100 μM Nam (HCT116 cells; 10% FBS Nam-free DMEM) | sensitivity of SARM1-knockout cells (SARM1) | bioavailability [2] | toxic effects in mice ([3]; mice bearing MPNST xenografts) | growth of xenograft tumors ([3]; mice, listed as compound 21) | toxicity to Schwann cells (Schwann cells) | anti-proliferative activity (primary mouse GBM cells) | toxicity to mouse embryonic fibroblasts [4] | toxicity to MPNST cell lines [5]
1 | substantial inhibition | 20.8 | 6.0 | metabolized over time | O=C(Nc1cccs1)c1cccnc1 [Compound 9, N-(Thiophen-2-yl)nicotinamide] | profound dose-dependent rescue | rescued by 100 μM Nam | equally sensitive | – | – | – | – | – | – | –
2 | – | – | – | – | O=C(Nc1cccnc1)c1cccs1 [Compound 1, N-(pyridin-3-yl)thiophene-2-carboxamide] | – | – | – | bioavailable when dosed orally; also recorded: bioavailable in mice | without obvious toxic effects | inhibited the growth; also recorded: reduces the growth of xenograft tumors | nontoxic | hit | nontoxic | selectively toxic
